Assays:
Type in all cases: cell-based
[1] = test system: E. coli DH5α; test: Antibacterial activity: MIC and growth curve against E. coli DH5α in 96-well plate; conditions: minimal inhibitory concentration against E. coli DH5α; 96-well plate, 5×10^5 CFU/mL, 37° C., judged after 8 h
Outline: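 Log-phase DH5α (OD600 about 0.5, 37° C, 185 rpm in LB) was pelleted, resuspended in fresh LB and seeded at 5×10^5 CFU/mL with recombinant protein at 50, 25 and 12.5 μg/mL (two-fold series), in triplicate. Plates were shaken at 175 rpm, 37° C, and OD600 was read every 30 min. MIC was the lowest concentration with no growth.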

[2] = test system: E. coli BL21; test: MIC against Gram-negative bacteria: E. coli BL21; conditions: E. coli BL21; 10 h cultivation at 37° C.
Outline: (§1)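 Growth inhibition by human EGF domain proteins was scored in LB liquid culture seeded at 5×10^5 CFU/mL. Protein was applied as a two-fold dilution series in triplicate, with shaking incubation at 37° C; MIC is the lowest concentration giving no growth.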

[3] = test system: Pseudomonas aeruginosa; test: MIC against Gram-negative bacteria: Pseudomonas aeruginosa; conditions: P. aeruginosa; 10 h cultivation at 37° C.
Outline: as §1

[4] = test system: Klebsiella pneumonia; test: MIC against Gram-negative bacteria: Klebsiella pneumonia; conditions: K. pneumonia; 10 h cultivation at 37° C.
Outline: as §1

[5] = test system: Enterobacter cloacae; test: MIC against Gram-negative bacteria: Enterobacter cloacae; conditions: E. cloacae; 10 h cultivation at 37° C.
Outline: as §1

[6] = test system: Aeromonas hydrophila; test: MIC against Gram-negative bacteria: Aeromonas hydrophila; conditions: A. hydrophila; 10 h cultivation at 37° C.
Outline: as §1

[7] = test system: Citrobacter diversus; test: MIC against Gram-negative bacteria: Citrobacter diversus; conditions: C. diversus; 10 h cultivation at 37° C.
Outline: as §1

[8] = test system: Moraxella catarrhalis; test: MIC against Gram-negative bacteria: Moraxella catarrhalis; conditions: M. catarrhalis; 10 h cultivation at 37° C.
Outline: as §1

[9] = test system: Proteus mirabilis; test: MIC against Gram-negative bacteria: Proteus mirabilis; conditions: P. mirabilis; 10 h cultivation at 37° C.
Outline: as §1

[10] = test system: Proteus vulgaris; test: MIC against Gram-negative bacteria: Proteus vulgaris; conditions: P. vulgaris; 10 h cultivation at 37° C.
Outline: as §1

[11] = test system: Serratia marcescens; test: MIC against Gram-negative bacteria: Serratia marcescens; conditions: S. marcescens; 10 h cultivation at 37° C.
Outline: as §1

Substance: PRT942 (LVNLCSRSPCKNKGTCVQKKAESQCLCPSGWAGAYCD; listed as Homo sapiens)
- MIC [1]: 25 µg/mL
- MIC [2]: 50 µg/mL
- MIC [3]: 12.5 µg/mL
- MIC [4]: 50 µg/mL
- MIC [5]: 12.5 µg/mL
- MIC [6]: 25 µg/mL
- MIC [7]: 50 µg/mL
- MIC [8]: 12.5 µg/mL
- MIC [9]: 50 µg/mL
- MIC [10]: 12.5 µg/mL
- MIC [11]: 50 µg/mL

Substance: PRT943 (PNVSCDIAASRRGVLVEHLCQHSGVCINAGNTHYCQCPLGYTGSYCE; listed as Homo sapiens)
- MIC [1]: 12.5 µg/mL
- MIC [2]: 12.5 µg/mL
- MIC [3]: 12.5 µg/mL
- MIC [4]: 12.5 µg/mL
- MIC [5]: 25 µg/mL
- MIC [6]: 12.5 µg/mL
- MIC [7]: 12.5 µg/mL
- MIC [8]: 12.5 µg/mL
- MIC [9]: 12.5 µg/mL
- MIC [10]: 12.5 µg/mL
- MIC [11]: 50 µg/mL

Substance: PRT944 (TSHPCFVSRPCLNGGTCHMLSRDTYECTCQVGFTGKECQ; listed as Homo sapiens)
- MIC [1]: 12.5 µg/mL
- MIC [2]: 25 µg/mL
- MIC [3]: 50 µg/mL
- MIC [4]: 100 µg/mL
- MIC [5]: 50 µg/mL
- MIC [6]: 12.5 µg/mL
- MIC [7]: 50 µg/mL
- MIC [8]: 12.5 µg/mL
- MIC [9]: 25 µg/mL
- MIC [10]: 50 µg/mL
- MIC [11]: 12.5 µg/mL

Substance: PRT945 (QLDECASNPCQHGATCSDFIGGYRCECVPGYQGVNCE; listed as Homo sapiens)
- MIC [1]: 25 µg/mL
- MIC [2]: 50 µg/mL
- MIC [3]: 25 µg/mL
- MIC [4]: 12.5 µg/mL
- MIC [5]: 25 µg/mL
- MIC [6]: 50 µg/mL
- MIC [7]: 12.5 µg/mL
- MIC [8]: 25 µg/mL
- MIC [9]: 50 µg/mL
- MIC [10]: 12.5 µg/mL
- MIC [11]: 25 µg/mL

Substance: PRT946 (EVDECQNQPCQNGGTCIDLVNHFKCSCPPGTRGLLCE; listed as Homo sapiens)
- MIC [1]: 50 µg/mL
- MIC [2]: 12.5 µg/mL
- MIC [3]: 50 µg/mL
- MIC [4]: 12.5 µg/mL
- MIC [5]: 50 µg/mL
- MIC [6]: 25 µg/mL
- MIC [7]: 12.5 µg/mL
- MIC [8]: 50 µg/mL
- MIC [9]: 25 µg/mL
- MIC [10]: 12.5 µg/mL
- MIC [11]: 50 µg/mL

Substance: PRT947 (NIDDCARGPHCLNGGQCMDRIGGYSCRCLPGFAGERCE; listed as Homo sapiens)
- MIC [1]: 12.5 µg/mL
- MIC [2]: 50 µg/mL
- MIC [3]: 12.5 µg/mL
- MIC [4]: 50 µg/mL
- MIC [5]: 12.5 µg/mL
- MIC [6]: 50 µg/mL
- MIC [7]: 25 µg/mL
- MIC [8]: 12.5 µg/mL
- MIC [9]: 25 µg/mL
- MIC [10]: 50 µg/mL
- MIC [11]: 12.5 µg/mL

Substance: PRT948 (DINECLSNPCSSEGSLDCIQLTNDYLCVCRSAFTGRHCE; listed as Homo sapiens)
- MIC [1]: 50 µg/mL
- MIC [2]: 12.5 µg/mL
- MIC [3]: 50 µg/mL
- MIC [4]: 12.5 µg/mL
- MIC [5]: 50 µg/mL
- MIC [6]: 25 µg/mL
- MIC [7]: 12.5 µg/mL
- MIC [8]: 50 µg/mL
- MIC [9]: 25 µg/mL
- MIC [10]: 12.5 µg/mL
- MIC [11]: 50 µg/mL

Substance: PRT949 (FVDVCPQMPCLNGGTCAVASNMPDGFICRCPPGFSGARCQ; listed as Homo sapiens)
- MIC [1]: 12.5 µg/mL
- MIC [2]: 25 µg/mL
- MIC [3]: 50 µg/mL
- MIC [4]: 25 µg/mL
- MIC [5]: 12.5 µg/mL
- MIC [6]: 50 µg/mL
- MIC [7]: 12.5 µg/mL
- MIC [8]: 25 µg/mL
- MIC [9]: 50 µg/mL
- MIC [10]: 12.5 µg/mL
- MIC [11]: 25 µg/mL

Substance: PRT950 (CESGCASSPCQHGGSCHPQRQPPYYSCQCAPPFSGSRCE; listed as Homo sapiens)
- MIC [1]: 50 µg/mL
- MIC [2]: 12.5 µg/mL
- MIC [3]: 50 µg/mL
- MIC [4]: 25 µg/mL
- MIC [5]: 12.5 µg/mL
- MIC [6]: 50 µg/mL
- MIC [7]: 25 µg/mL
- MIC [8]: 12.5 µg/mL
- MIC [9]: 50 µg/mL
- MIC [10]: 25 µg/mL
- MIC [11]: 12.5 µg/mL

Substance: PRT951 (WTDACLSHPCANGSTCTTVANQFSCKCLTGFTGQKCE; listed as Homo sapiens)
- MIC [1]: 25 µg/mL
- MIC [2]: 25 µg/mL
- MIC [3]: 25 µg/mL
- MIC [4]: 25 µg/mL
- MIC [5]: 12.5 µg/mL
- MIC [6]: 12.5 µg/mL
- MIC [7]: 25 µg/mL
- MIC [8]: 12.5 µg/mL
- MIC [9]: 25 µg/mL
- MIC [10]: 50 µg/mL
- MIC [11]: 100 µg/mL

Substance: PRT954 (NIDDCPNHRCQNGGVCVDGVNTYNCRCPPQWTGQFCT; listed as Homo sapiens)
- MIC [1]: 50 µg/mL
- MIC [2]: 25 µg/mL
- MIC [3]: 12.5 µg/mL
- MIC [4]: 25 µg/mL
- MIC [5]: 50 µg/mL
- MIC [6]: 12.5 µg/mL
- MIC [7]: 25 µg/mL
- MIC [8]: 50 µg/mL
- MIC [9]: 25 µg/mL
- MIC [10]: 12.5 µg/mL
- MIC [11]: 25 µg/mL

Substance: PRT955 (DVDECLLQPNACQNGGTCANRNGGYGCVCVNGWSGDDCS; listed as Homo sapiens)
- MIC [1]: 50 µg/mL
- MIC [2]: 12.5 µg/mL
- MIC [3]: 25 µg/mL
- MIC [4]: 12.5 µg/mL
- MIC [5]: 25 µg/mL
- MIC [6]: 12.5 µg/mL
- MIC [7]: 25 µg/mL
- MIC [8]: 12.5 µg/mL
- MIC [9]: 12.5 µg/mL
- MIC [10]: 25 µg/mL
- MIC [11]: 12.5 µg/mL

Substance: PRT956 (NIDDCAFASCTPGSTCIDRVASFSCMCPEGKAGLLCH; listed as Homo sapiens)
- MIC [1]: 12.5 µg/mL
- MIC [2]: 12.5 µg/mL
- MIC [3]: 12.5 µg/mL
- MIC [4]: 25 µg/mL
- MIC [5]: 12.5 µg/mL
- MIC [6]: 25 µg/mL
- MIC [7]: 25 µg/mL
- MIC [8]: 12.5 µg/mL
- MIC [9]: 25 µg/mL
- MIC [10]: 50 µg/mL
- MIC [11]: 25 µg/mL

Substance: PRT957 (APPCLDGSPCANGGRCTQLPSREAACLCPPGWVGERCQ; listed as Homo sapiens)
- MIC [1]: 12.5 µg/mL
- MIC [2]: 25 µg/mL
- MIC [3]: 50 µg/mL
- MIC [4]: 25 µg/mL
- MIC [5]: 12.5 µg/mL
- MIC [6]: 25 µg/mL
- MIC [7]: 50 µg/mL
- MIC [8]: 12.5 µg/mL
- MIC [9]: 25 µg/mL
- MIC [10]: 50 µg/mL
- MIC [11]: 12.5 µg/mL

Substance: PRT958 (DVDECSIGANPCEHLGRCVNTQGSFLCQCGRGYTGPRCE; listed as Homo sapiens)
- MIC [1]: 50 µg/mL
- MIC [2]: 12.5 µg/mL
- MIC [3]: 25 µg/mL
- MIC [4]: 50 µg/mL
- MIC [5]: 25 µg/mL
- MIC [6]: 25 µg/mL
- MIC [7]: 12.5 µg/mL
- MIC [8]: 50 µg/mL
- MIC [9]: 25 µg/mL
- MIC [10]: 12.5 µg/mL
- MIC [11]: 25 µg/mL

Substance: PRT961 (DVDECASTPCRNGAKCVDQPDGYECRCAEGFEGTLCD; listed as Homo sapiens)
- MIC [1]: 12.5 µg/mL
- MIC [2]: 25 µg/mL
- MIC [3]: 100 µg/mL
- MIC [4]: 25 µg/mL
- MIC [5]: 12.5 µg/mL
- MIC [6]: 12.5 µg/mL
- MIC [7]: 25 µg/mL
- MIC [8]: 25 µg/mL
- MIC [9]: 50 µg/mL
- MIC [10]: 12.5 µg/mL
- MIC [11]: 25 µg/mL

Substance: PRT962 (NVDDCSPDPCHHGRCVDGIASFSCACAPGYTGTRCE; listed as Homo sapiens)
- MIC [1]: 25 µg/mL
- MIC [2]: 50 µg/mL
- MIC [3]: 25 µg/mL
- MIC [4]: 12.5 µg/mL
- MIC [5]: 25 µg/mL
- MIC [6]: 50 µg/mL
- MIC [7]: 12.5 µg/mL
- MIC [8]: 25 µg/mL
- MIC [9]: 50 µg/mL
- MIC [10]: 12.5 µg/mL
- MIC [11]: 25 µg/mL

Substance: PRT963 (QVDECRSQPCRHGGKCLDLVDKYLCRCPSGTTGVNCE; listed as Homo sapiens)
- MIC [1]: 25 µg/mL
- MIC [2]: 50 µg/mL
- MIC [3]: 25 µg/mL
- MIC [4]: 12.5 µg/mL
- MIC [5]: 25 µg/mL
- MIC [6]: 50 µg/mL
- MIC [7]: 25 µg/mL
- MIC [8]: 12.5 µg/mL
- MIC [9]: 50 µg/mL
- MIC [10]: 25 µg/mL
- MIC [11]: 25 µg/mL

Substance: PRT964 (NIDDCASNPCTFGVCRDGINRYDCVCQPGFTGPLCN; listed as Homo sapiens)
- MIC [1]: 12.5 µg/mL
- MIC [2]: 25 µg/mL
- MIC [3]: 50 µg/mL
- MIC [4]: 25 µg/mL
- MIC [5]: 12.5 µg/mL
- MIC [6]: 25 µg/mL
- MIC [7]: 50 µg/mL
- MIC [8]: 25 µg/mL
- MIC [9]: 25 µg/mL
- MIC [10]: 12.5 µg/mL
- MIC [11]: 50 µg/mL

— US9833497B2, “Human originated EGF domain proteins and use of the same” (CHENGDU SOURCEBIO LIMITED-LIABILITY COMPANY, priority 2013, dated 2017)
